US4472408A, “Substituted trifluoromethylphenyltetrahydropyridines having an anorectic activity” (Sanofi, priority 1981, dated 1984)
pIC50: −log10 of the molar value. Where a name gives a salt, the structure may show the parent alone. Read-outs that look alike come from different tables or passages of the source.

Assays:
[1] = acute toxicity, LD50 in the rat by oral or intraperitoneal route; settings: in vivo
Description: the acute toxicity, expressed as LD50 in the rat by the oral or intraperitoneal route (A);

[2] = anorectic activity, food intake in the rat; format: in vivo; settings: in vivo, read-out: A/B, ratio acute toxicity to anorectic activity (therapeutic index)
Description: (§1) The anorectic activity was assessed by the method of the food intake in the rat. Female rats weighing 200 g are used, which were trained for 10 days to eat during a period of 4 hours and selected on the eighth day. At the end of the tenth day, the randomised animals were divided into a "control group" treated by the vehicle alone, and into several "treated groups". Treatment was effected by the intraperitoneal or oral route 30 minutes or 1 hour before presentation of the food and the quantity of food therefor taken during the first hour was then measured.
(§2) the anorectic activity, expressed as oral or intraperitoneal dose inhibiting by 50% the food intake (ID50, B);
(§3) the ratio between the acute toxicity and the anorectic activity which expresses the therapeutic index related to the acute toxocity (A/B).

[3] = tested on: food intake in the rat; assay: anorectic activity, food intake in the rat; format: in vivo; settings: 1 h, food taken during first hour, read-out: ID50 (B), dose inhibiting by 50% the food intake
Description: as §1, §2, §3

[4] = tested on: cerebral serotonin; assay: cerebral rates of serotonin after i.p. or oral administration (Curzon and Green); format: in vivo
Description: Table II hereinbelow summarises the cerebral rates of serotonin, in percentage with respect to the controls, after intraperitoneal or oral administration of four representative compounds of the present invention. The determination of the cerebral rates, according to Curzon and Green (Brit. J. Pharmacol. 39, 653, 1970) was effected one hour and/or two hours after administration. Fenfluramine was used as reference product.

[5] = tested on: cerebral serotonin; settings: at doses very close to the anorectic dose; Arch. Intern. Pharmacodyn. Ther. 1967; cited from earlier work
[6] = target: post-synaptic serotonin receptors; assay: 3H-serotonin binding to rat cortex membranes (Peroutka and Snyder)
Description: The affinity of the compounds of the present invention for the post-synaptic serotinin receptors was determined according to the method of Peroutka and Snyder (Molec. Pharmacol. 1979, 16, 687-699) which consists in incubating rat cortex membranes with a fixed concentration of ^3 H-serotonin in the presence of different concentrations of product. […] Fenfluramine was used as reference compound.

[7] = tested on: food intake in the rat; settings: background; cited from earlier work
[8] = background; cited from earlier work
[9] = i.p., 7.5 mg/kg, 2 hrs (fenfluramine: significant P < 0.01)

| Compound | LD50 ([1]; ip) [mg/kg] | selectivity ratio ([2]; ip) | ED50 ([3]; ip, i.p.) [mg/kg] | LD50 ([1]; oral) [mg/kg] | selectivity ratio ([2]; oral) | ED50 ([3]; oral) [mg/kg] | cerebral rates of serotonin [4, 9] | cerebral rates of serotonin ([4]; i.p., 15.0 mg/kg, 2 hrs) | further results |
| --- | --- | --- | --- | --- | --- | --- | --- | --- | --- |
| CC(=O)CN1CC=C(c2cccc(C(F)(F)F)c2)CC1.Cl [Example 5, 4-(3-trifluoromethylphenyl)-1-acetonyl-1,2,3,6-tetrahydropyridine hydrochloride] | 165 | 15.3 | 10.8 | – | – | – | – | – | – |
| Cl.N#CCCCN1CC=C(c2cccc(C(F)(F)F)c2)CC1 [Example 3, 4-(3-trifluoromethylphenyl)-1-(3-cyanopropyl)-1,2,3,6-tetrahydropyridine hydrochloride] | 258 | 23.3 | 11.1 | 538 | 46 | 11.7 | – | – | – |
| CC(=O)CCN1CC=C(c2cccc(C(F)(F)F)c2)CC1.Cl [Example 6, 4-(3-trifluoromethylphenyl)-1-(3-oxobutyl)-1,2,3,6-tetrahydropyridine hydrochloride] | 134 | 20.6 | 6.5 | 299 | 25.3 | 11.8 | 108 % with respect to controls | 116 % with respect to controls | cerebral rates of serotonin ([4]; i.p., 3.25 mg/kg, 2 hrs): 109 % with respect to controls |
| N#CCCCCN1CC=C(c2cccc(C(F)(F)F)c2)CC1 [Example 4, 4-(3-trifluoromethylphenyl-1-(4-cyanobutyl)-1,2,3,6-tetrahydropyridine hydrochloride] | – | – | – | 336 | 32 | 10.5 | – | – | – |
| CCNC(C)Cc1cccc(C(F)(F)F)c1 (centres unmarked) [fenfluramine, reference compound] | – | 15.8 | 5.4 | – | 25.1 | 4 | 53.1 % with respect to controls | – | effect on cerebral rates of serotonin (in words) [5]: induces a significant reduction in the cerebral rates of serotonin; pIC50 [6]: < 5.00; cerebral rates of serotonin ([4]; i.p., 5 mg/kg, 1 hr, significant P < 0.05): 82.9 % with respect to controls; cerebral rates of serotonin ([4]; i.p., 7.5 mg/kg, 1 hr, significant P < 0.05): 81.6 % with respect to controls; cerebral rates of serotonin ([4]; i.p., 10 mg/kg, 1 hr, significant P < 0.01): 79.0 % with respect to controls; effect on cerebral rates of serotonin (in words) ([4]; in vivo): induces a significant reduction of cerebral serotonin; anorectic activity (in words) [7]: excellent anorectic activity; sedative or stimulant action (in words) [8]: instead of being stimulant, has a certain sedative action |
| Cl.FC(F)(F)c1cccc(C2=CCN(CCC3CCCCC3)CC2)c1 [Example 10, 4-(3-trifluoromethylphenyl)-1-(2-cyclohexylethyl)-1,2,3,6-tetrahydropyridine hydrochloride] | – | – | – | 488 | 188 | 2.6 | – | – | cerebral rates of serotonin ([4]; oral, 1.25 mg/kg, 2 hrs): 99 % with respect to controls; cerebral rates of serotonin ([4]; oral, 2.5 mg/kg, 2 hrs): 95 % with respect to controls; cerebral rates of serotonin ([4]; oral, 5 mg/kg, 2 hrs): 101 % with respect to controls |
| Cl.FC(F)(F)c1cccc(C2=CCN(CC3CC3)CC2)c1 [Example 7, 4-(3-trifluoromethylphenyl)-1-cyclopropylmethyl-1,2,3,6-tetrahydropyridine hydrochloride] | 135 | 24.6 | 5.5 | – | – | – | 123 % with respect to controls | 119 % with respect to controls | cerebral rates of serotonin ([4]; i.p., 3.25 mg/kg, 2 hrs): 111 % with respect to controls |
| Cl.N#CCCN1CC=C(c2cccc(C(F)(F)F)c2)CC1 [Example 2, 4-(3-trifluoromethylphenyl)-1-(2-cyanoethyl)-1,2,3,6-tetrahydropyridine hydrochloride] | 206 | 17.1 | 12 | 254 | 26.7 | 9.5 | 128 % with respect to controls | 146 % with respect to controls | cerebral rates of serotonin ([4]; i.p., 15.0 mg/kg, 1 hr): 131.0 % with respect to controls; cerebral rates of serotonin ([4]; i.p., 30.0 mg/kg, 2 hrs): 146 % with respect to controls |
